This passage reports GI50 and TGI results from PubChem BioAssay (NCI).

“And” between values parts separate entries of the source, which are not always exact repeats. Equal entries are not always repeated.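 Five concentrations, 48 hours, 96-well plates. Abbreviation: GI50, concentration required for 50% inhibition of growth. TGI: total growth inhibition.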

Some test systems named below: SF-539 CNS; DU-145 prostate; SK-MEL-2 melanoma; BT-549 breast; NCI/ADR-RES ovarian; TK-10 renal; HOP-92 NSCLC; UO-31 renal; SN12C renal; UACC-257 melanoma.
Holding throughout (experiment): NCI-60 cell line screen, 48 h

Turning to `O=C(CN1CCN(c2ccccn2)CC1)Nc1ccc(Cl)cc1C(=O)c1ccccc1Cl`, the GI50 with SF-539 CNS was 45.9 µM; in the experiment with DU-145 prostate, above 100 µM; in the experiment on SK-MEL-2 melanoma, above 100 µM; with BT-549 breast, 81.4 µM; in the experiment with NCI/ADR-RES ovarian it was 86.8 µM; with TK-10 renal, above 100 µM. Further, the GI50 in the experiment with HOP-92 NSCLC was 2.52 µM; with UO-31 renal, 9.38 µM; with SN12C renal, above 100 µM; with UACC-257 melanoma, 54.9 µM. Besides, the TGI in the experiment on SF-539 CNS, in the experiment on DU-145 prostate, in the experiment on SK-MEL-2 melanoma, with BT-549 breast, with NCI/ADR-RES ovarian and with TK-10 renal was above 100 µM in each case. Also, the TGI was 53.7 µM with HOP-92 NSCLC, above 100 µM in the experiment with UO-31 renal, above 100 µM with SN12C renal and above 100 µM with UACC-257 melanoma.

Regarding `NC(N)=NC(N)=NCc1ccco1`, the GI50 was above 1250 µM in the experiment on SF-539 CNS; above 1250 µM in the experiment on DU-145 prostate; above 1250 µM in the experiment on SK-MEL-2 melanoma; 336 µM and 974 µM in the experiment on BT-549 breast; above 1250 µM in the experiment with NCI/ADR-RES ovarian; above 1250 µM in the experiment on TK-10 renal. In addition, the GI50 in the experiment on HOP-92 NSCLC is 116 µM; in the experiment with UO-31 renal it was above 1250 µM; with SN12C renal it was above 1250 µM; with UACC-257 melanoma it was 843 µM and 565 µM. For the same molecule, the TGI in the experiment with SF-539 CNS, in the experiment on DU-145 prostate, with SK-MEL-2 melanoma, in the experiment with BT-549 breast, in the experiment with NCI/ADR-RES ovarian and in the experiment with TK-10 renal was above 1250 µM throughout. Also, the TGI in the experiment with UO-31 renal, in the experiment on SN12C renal and with UACC-257 melanoma was above 1250 µM each time.

Take `CC(=O)N1c2ccc(-c3ccc(C(=O)O)cc3)cc2[C@H](Nc2ccc(Cl)cc2)C[C@@H]1C`: the GI50 in the experiment with SF-539 CNS is 0.0622 µM; in the experiment with DU-145 prostate, 12.1 µM; in the experiment on SK-MEL-2 melanoma it was 0.581 µM; in the experiment with BT-549 breast, 1.27 µM; with NCI/ADR-RES ovarian it was 0.551 µM; in the experiment with TK-10 renal, 0.0569 µM. Further, the GI50 was 0.024 µM with HOP-92 NSCLC, below 0.0251 µM with UO-31 renal, 3.89 µM with SN12C renal and 0.366 µM in the experiment with UACC-257 melanoma. The TGI in the experiment with SF-539 CNS was 20.2 µM; in the experiment on DU-145 prostate, above 100 µM; in the experiment with SK-MEL-2 melanoma, 14.3 µM; in the experiment with BT-549 breast, 29.6 µM; in the experiment with NCI/ADR-RES ovarian it was above 100 µM; with TK-10 renal, 17.9 µM. Besides, the TGI in the experiment with HOP-92 NSCLC was found to be 13.3 µM; with UO-31 renal, 13 µM; in the experiment on SN12C renal it was 99 µM; with UACC-257 melanoma it was 21.5 µM.

As to `CCN1C(=O)N(CC)C2C1NN=c1s/c(=C\c3cnc(C)n3C)c(=O)n12` (centres undefined), the GI50 with SF-539 CNS is 1.78 µM; in the experiment on DU-145 prostate, 2.51 µM; in the experiment with SK-MEL-2 melanoma it was 1.85 µM; with BT-549 breast, 3.66 µM; with NCI/ADR-RES ovarian it was 10.3 µM; in the experiment on TK-10 renal, 7.19 µM. Further, the GI50 in the experiment with HOP-92 NSCLC was 4.85 µM; in the experiment on UO-31 renal, 5 µM; in the experiment with SN12C renal it was 4.64 µM; with UACC-257 melanoma, 4.69 µM. The TGI in the experiment with SF-539 CNS was 5.19 µM; in the experiment on DU-145 prostate, above 100 µM; with SK-MEL-2 melanoma it was 11.3 µM; with BT-549 breast it was 90.9 µM; with NCI/ADR-RES ovarian, above 100 µM; in the experiment with TK-10 renal, above 100 µM. The TGI in the experiment on HOP-92 NSCLC was 96.1 µM; with UO-31 renal, above 100 µM; in the experiment on SN12C renal, above 100 µM; with UACC-257 melanoma it was above 100 µM.

As for `CNCC1CCn2c(c(C3=C(c4cn(C)c5ccccc45)C(=O)NC3=O)c3ccccc32)C1` (centres undefined), the GI50 in the experiment with SF-539 CNS was 3.69 µM; in the experiment on DU-145 prostate it was 3.76 µM; with SK-MEL-2 melanoma it was 3.33 µM; with BT-549 breast it was 4.36 µM; with NCI/ADR-RES ovarian it was 10.2 µM; with TK-10 renal, 2.78 µM. The GI50 in the experiment with HOP-92 NSCLC is 0.13 µM; in the experiment with UO-31 renal, 2.6 µM; with SN12C renal it was 2.87 µM; in the experiment on UACC-257 melanoma, 3.56 µM. Besides, the TGI with SF-539 CNS was 7.21 µM; in the experiment on DU-145 prostate, 8.6 µM; in the experiment on SK-MEL-2 melanoma, 7.07 µM; in the experiment with BT-549 breast, 10.9 µM; with NCI/ADR-RES ovarian, 25 µM; with TK-10 renal, 6.34 µM. Besides, the TGI is 8.64 µM with HOP-92 NSCLC, 6.49 µM in the experiment on UO-31 renal, 9.28 µM in the experiment on SN12C renal and 7.55 µM with UACC-257 melanoma.

In the case of `O=C(N/N=C/c1cccc(O)c1)c1ccc(C(F)(F)F)nc1Nc1cccc(C(F)(F)F)c1`, the GI50 was 1.78 µM in the experiment with SF-539 CNS; 1.82 µM with DU-145 prostate; 1.76 µM in the experiment with SK-MEL-2 melanoma; 0.76 µM with BT-549 breast; 2.04 µM with NCI/ADR-RES ovarian; 1.44 µM with TK-10 renal. For the same molecule, the GI50 in the experiment with HOP-92 NSCLC is 1.29 µM; in the experiment with UO-31 renal, 1.59 µM; in the experiment with SN12C renal, 1.79 µM; with UACC-257 melanoma, 2.36 µM. Further, the TGI in the experiment with SF-539 CNS was determined as 4.03 µM; with DU-145 prostate, 10.7 µM; in the experiment on SK-MEL-2 melanoma it was 6.07 µM; with BT-549 breast it was 3.41 µM; in the experiment on NCI/ADR-RES ovarian it was 5.93 µM; with TK-10 renal, 4.64 µM. The TGI amounted to 4.56 µM in the experiment on HOP-92 NSCLC, 5.08 µM with UO-31 renal, 6.34 µM in the experiment with SN12C renal and 8.44 µM in the experiment on UACC-257 melanoma.

As for `CN1C(=O)C(C)(C)Oc2c(-c3cn(C)c(=O)c4[nH]ccc34)cc(S(C)(=O)=O)cc21`, the GI50 was 0.58 µM in the experiment on SF-539 CNS; 3.85 µM with DU-145 prostate; 1.95 µM in the experiment on SK-MEL-2 melanoma; 1.09 µM with BT-549 breast; 14.3 µM in the experiment with NCI/ADR-RES ovarian; 0.495 µM with TK-10 renal. Also, the GI50 was 0.408 µM with HOP-92 NSCLC, 0.431 µM in the experiment with UO-31 renal, 2.68 µM in the experiment with SN12C renal and 0.865 µM in the experiment with UACC-257 melanoma. Further, the TGI with SF-539 CNS is 40.3 µM; with DU-145 prostate, above 100 µM; with SK-MEL-2 melanoma it was above 100 µM; in the experiment on BT-549 breast, 14.7 µM; in the experiment with NCI/ADR-RES ovarian it was above 100 µM; in the experiment on TK-10 renal, 14.6 µM. Besides, the TGI with HOP-92 NSCLC, with UO-31 renal, in the experiment with SN12C renal and with UACC-257 melanoma was above 100 µM throughout.
